Measurements reported in patent US9169252B2 (BRISTOL-MYERS SQUIBB COMPANY, priority 2014, dated 2015).

What was measured:
IRAK4 = IRAK4 (Homo sapiens (Human), UniProt Q9NWZ3); assay: IRAK4 Inhibition Assay; type: biochemical; settings: ATP 500 μM; IRAK4 0.6 nM; read-out: IRAK4 IC50
Procedure, shortened: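 Mobility-shift readout: fluorescent substrate and phosphoproduct resolved electrophoretically on Caliper LabChip 3000 after EDTA quench (35 mM). Enzyme reaction of IRAK4, substrates and test compound ran 60 min at room temperature.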

[1] = test system: TLR2 induced IL-6 in peripheral blood mononuclear cells (PBMCs); assay: PBMC TLR2 Induced IL-6 Assay; type: cell-based, human; settings: Homo sapiens, PBMC, human PBMCs, lipoteichoic acid stimulated, IL-6 by ELISA; for IC50: read-out: Cell IC50; for EC50: read-out: Cell EC50
Procedure, shortened: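 Lipoteichoic acid at 10 µg/ml served as TLR2 stimulus for 5 hours, following a 30-minute compound pretreatment at 37° C. Cells were Ficoll-isolated human PBMCs, 250000 cells/well, cultured in RPMI plus 10% heat-inactivated FCS.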

Sequence of IRAK4 (Q9NWZ3 whole entry, species assumed): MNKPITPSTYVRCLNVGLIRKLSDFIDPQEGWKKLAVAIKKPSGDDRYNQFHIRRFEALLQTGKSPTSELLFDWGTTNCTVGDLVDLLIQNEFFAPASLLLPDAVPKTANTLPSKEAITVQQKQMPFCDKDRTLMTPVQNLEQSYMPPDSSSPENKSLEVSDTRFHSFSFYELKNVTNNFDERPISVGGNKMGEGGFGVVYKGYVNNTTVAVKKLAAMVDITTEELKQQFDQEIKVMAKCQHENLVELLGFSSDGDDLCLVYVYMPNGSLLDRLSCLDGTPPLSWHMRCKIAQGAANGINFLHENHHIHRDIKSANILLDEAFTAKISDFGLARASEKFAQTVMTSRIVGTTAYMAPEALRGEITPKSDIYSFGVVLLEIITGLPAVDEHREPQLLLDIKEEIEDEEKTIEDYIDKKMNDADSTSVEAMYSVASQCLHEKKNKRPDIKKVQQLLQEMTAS

CC(C)(O)[C@H](F)CNC(=O)c1cnc(-n2ncc3cc(C#N)cnc32)cc1NC1CCN(c2ncc(F)cn2)CC1 [Example 540]
IC50 (IRAK4): 3 nM | IC50 [1]: 158 nM

CC(C)(O)[C@H](F)CNC(=O)c1cnc(-n2ncc3cc(C#N)cnc32)cc1NC1CN(c2ncc(Cl)cn2)C1 [Example 541]
IC50 (IRAK4): 14.4 nM | IC50 [1]: 149 nM

COC(=O)N1CC(Nc2cc(-n3ncc4cc(C#N)cnc43)ncc2C(=O)NC[C@@H](F)C(C)(C)O)C1 [Example 542]
IC50 (IRAK4): 7.3 nM | IC50 [1]: 973 nM

CCOC(=O)N1CC(Nc2cc(-n3ncc4cc(C#N)cnc43)ncc2C(=O)NC[C@@H](F)C(C)(C)O)C1 [Example 543]
IC50 (IRAK4): 6.8 nM | IC50 [1]: 404 nM

CC(C)(O)[C@H](F)CNC(=O)c1cnc(-n2ncc3cc(C#N)cnc32)cc1NC1COC1 [Example 546]
IC50 (IRAK4): 3.7 nM | EC50 [1]: 257 nM

CC(C)(O)[C@H](F)CNC(=O)c1cnc(-n2ncc3cc(F)cnc32)cc1NC1CCCOC1 (stereo partly shown) [Example 547]
IC50 (IRAK4): 16.6 nM | EC50 [1]: 65 nM | IC50 [1]: 591 nM

CC(C)(O)[C@H](F)CNC(=O)c1cnc(N2CCc3cc(C#N)cnc32)cc1NC1COC1 [Example 549]
IC50 (IRAK4): 16.8 nM | EC50 [1]: 413 nM | IC50 [1]: 757 nM

CC(C)(O)[C@H](F)CNC(=O)c1cnc(-n2ncc3cc(F)cnc32)cc1NC1COC1 [Example 550]
IC50 (IRAK4): 10.3 nM | EC50 [1]: 416 nM

CC(C)(O)[C@H](F)CNC(=O)c1cnc(-n2ncc3cc(Cl)cnc32)cc1NC1COC1 [Example 551]
IC50 (IRAK4): 12.6 nM | IC50 [1]: 212 nM

CO[C@H]1CC[C@H](NC(=O)c2cnc(-n3ncc4cc(C#N)cnc43)cc2NC2COC2)CC1 [Example 552]
IC50 (IRAK4): 13.4 nM | IC50 [1]: 213 nM

CC(C)(O)CCNC(=O)c1cnc(-n2ncc3cc(C#N)cnc32)cc1NC1COC1 [Example 553]
IC50 (IRAK4): 11.2 nM | IC50 [1]: 298 nM

CC(C)(O)[C@H](F)CNC(=O)c1cnc(-n2ncc3cc(C#N)cnc32)cc1NC1COCC1(F)F (stereo partly shown) [Example 554]
IC50 (IRAK4): 5.5 nM | IC50 [1]: 370 nM

CC(C)(O)[C@H]1CC[C@H](NC(=O)c2cnc(-n3ncc4cc(C#N)cnc43)cc2NC2COC2)CC1 [Example 555]
IC50 (IRAK4): 7 nM | IC50 [1]: 47 nM

CC(C)(O)[C@H]1CC[C@H](NC(=O)c2cnc(-n3ncc4cc(Cl)cnc43)cc2NC2COC2)CC1 [Example 556]
IC50 (IRAK4): 6.2 nM | IC50 [1]: 305 nM

CC(C)CCNC(=O)c1cnc(-n2ncc3cc(C#N)cnc32)cc1NC1COC1 [Example 557]
IC50 (IRAK4): 5.1 nM | IC50 [1]: 475 nM

N#Cc1cc2cnn(-c3cc(NC4COC4)c(C(=O)NCCC4CC4)cn3)c2nc1N [Example 558]
IC50 (IRAK4): 6.1 nM | IC50 [1]: 615 nM

CCCCNC(=O)c1cnc(-n2ncc3cc(C#N)c(N)nc32)cc1NC1COC1 [Example 559]
IC50 (IRAK4): 5.3 nM | IC50 [1]: 18 nM

CC(C)CCNC(=O)c1cnc(-n2ncc3cc(C#N)c(N)nc32)cc1NC1COC1 [Example 560]
IC50 (IRAK4): 3.4 nM | IC50 [1]: 254 nM

CCCCNC(=O)c1cnc(-n2ncc3cc(C#N)cnc32)cc1NC1COC1 [Example 561]
IC50 (IRAK4): 7.8 nM | IC50 [1]: 321 nM

CC(C)(O)[C@H](F)CNC(=O)c1cnc(-n2ncc3cc(F)cnc32)cc1NC1CCOCC1 [Example 562]
IC50 (IRAK4): 12.5 nM | EC50 [1]: 255 nM

CC(C)(O)[C@H](F)CNC(=O)c1cnc(-n2ncc3cc(C#N)cnc32)cc1NCCC(F)(F)F [Example 563, (R)-6-(5-Cyano-1H-pyrazolo[3,4-b]pyridin-1-yl)-N-(2-fluoro-3-hydroxy-3-methylbutyl)-4-((3,3,3-trifluoropropyl)amino)nicotinamide]
IC50 (IRAK4): 5 nM | EC50 [1]: 159 nM

COc1cnc(NC(=O)c2cnc(-n3ncc4cc(C#N)cnc43)cc2NC(C)C)cn1 [Example 564]
IC50 (IRAK4): 20.1 nM | EC50 [1]: 659 nM

CC(C)Nc1cc(-n2ncc3cc(C#N)cnc32)ncc1C(=O)NCc1nn[nH]n1 [Example 566]
IC50 (IRAK4): 17.2 nM | EC50 [1]: 637 nM

CC(C)Nc1cc(N2CCc3cc(C#N)cnc32)ncc1C(=O)NC[C@@H](F)C(C)(C)O [Example 567]
IC50 (IRAK4): 9.9 nM | EC50 [1]: 164 nM | IC50 [1]: 264 nM

CCNc1cc(-n2ncc3cc(C#N)cnc32)ncc1C(=O)NC[C@@H](F)C(C)(C)O [Example 568]
IC50 (IRAK4): 8.9 nM | EC50 [1]: 661 nM | IC50 [1]: 1370 nM

CC(C)[C@@H](CO)Nc1cc(-n2ncc3cc(C#N)cnc32)ncc1C(=O)NC[C@@H](F)C(C)(C)O [Example 569]
IC50 (IRAK4): 13 nM | EC50 [1]: 242 nM

CC(C)(O)[C@H](F)CNC(=O)c1cnc(-n2ncc3cc(C#N)cnc32)cc1NCC(C)(C)N1CCOCC1 [Example 570]
IC50 (IRAK4): 10.7 nM | EC50 [1]: 425 nM

CC(C)(O)[C@H](F)CNC(=O)c1cnc(-n2ncc3cc(C#N)cnc32)cc1NCc1cocn1 [Example 571]
IC50 (IRAK4): 15.2 nM | IC50 [1]: 101 nM

CC(C)(O)[C@H](F)CNC(=O)c1cnc(-n2ncc3cc(C#N)cnc32)cc1NCC(F)F [Example 574]
IC50 (IRAK4): 15.3 nM | IC50 [1]: 258 nM

CC(C)(C)CNc1cc(-n2ncc3cc(C#N)cnc32)ncc1C(=O)NC[C@@H](F)C(C)(C)O [Example 576]
IC50 (IRAK4): 5.8 nM | IC50 [1]: 153 nM

CCNc1cc(-n2ncc3cc(C#N)c(N)nc32)ncc1C(=O)NC[C@@H](F)C(C)(C)O [Example 577]
IC50 (IRAK4): 3.2 nM | IC50 [1]: 175 nM

CCCNc1cc(-n2ncc3cc(C#N)c(N)nc32)ncc1C(=O)NC[C@@H](F)C(C)(C)O [Example 578]
IC50 (IRAK4): 2.6 nM | IC50 [1]: 218 nM

CC(C)Nc1cc(-n2ncc3cnc(N)nc32)ncc1C(=O)NC[C@@H](F)C(C)(C)O [Example 579]
IC50 (IRAK4): 3.9 nM | IC50 [1]: 269 nM

CCNc1cc(-n2ncc3cnc(N)nc32)ncc1C(=O)NC[C@@H](F)C(C)(C)O [Example 580]
IC50 (IRAK4): 10.7 nM | IC50 [1]: 487 nM

CC(C)(O)[C@H](F)CNC(=O)c1cnc(-n2ncc3cc(C#N)cnc32)cc1NCC1(F)CCC1 [Example 581]
IC50 (IRAK4): 8.4 nM | IC50 [1]: 227 nM

C[C@@H](F)CNc1cc(-n2ncc3cc(C#N)cnc32)ncc1C(=O)NC[C@@H](F)C(C)(C)O [Example 582]
IC50 (IRAK4): 3.8 nM | IC50 [1]: 109 nM

C[C@H](F)CNc1cc(-n2ncc3cc(C#N)cnc32)ncc1C(=O)NC[C@@H](F)C(C)(C)O [Example 583]
IC50 (IRAK4): 4.1 nM | IC50 [1]: 188 nM

CC(C)Nc1cc(-n2ncc3cc(C#N)cnc32)ncc1C(=O)NC1CCN(C(=O)C2CN(S(C)(=O)=O)C2)CC1 [Example 584]
IC50 (IRAK4): 10 nM | EC50 [1]: 209 nM | IC50 [1]: 508 nM

CC(C)(CN)CNc1cc(-n2ncc3cc(C#N)cnc32)ncc1C(=O)NC[C@@H](F)C(C)(C)O [Example 585]
IC50 (IRAK4): 8.5 nM | IC50 [1]: 147 nM

CC(C)(O)[C@H](F)CNC(=O)c1cnc(-n2ncc3cc(C#N)cnc32)cc1NCCNS(C)(=O)=O [Example 586]
IC50 (IRAK4): 9.7 nM | IC50 [1]: 259 nM

CC(C)(O)[C@H](F)CNC(=O)c1cnc(-n2ncc3cc(C#N)cnc32)cc1NCCNC(=O)OC(C)(C)C(F)(F)F [Example 587]
IC50 (IRAK4): 13.8 nM | IC50 [1]: 298 nM

CC[C@@H](CO)Nc1cc(-n2ncc3cc(C#N)cnc32)ncc1C(=O)NC[C@@H](F)C(C)(C)O [Example 588]
IC50 (IRAK4): 4.4 nM | IC50 [1]: 506 nM

CC[C@@H](CO)Nc1cc(-n2ncc3cc(Cl)cnc32)ncc1C(=O)NC[C@@H](F)C(C)(C)O [Example 589]
IC50 (IRAK4): 4.1 nM | IC50 [1]: 361 nM

C[C@H](F)CNc1cc(-n2ncc3cc(C#N)c(N)nc32)ncc1C(=O)NC[C@@H](F)C(C)(C)O [Example 590]
IC50 (IRAK4): 1.9 nM | IC50 [1]: 129 nM

C[C@@H](F)CNc1cc(-n2ncc3cc(C#N)c(N)nc32)ncc1C(=O)NC[C@@H](F)C(C)(C)O [Example 591]
IC50 (IRAK4): 2.7 nM | IC50 [1]: 160 nM

COC(C)(C)CNc1cc(-n2ncc3cc(C#N)cnc32)ncc1C(=O)NC[C@@H](F)C(C)(C)O [Example 593]
IC50 (IRAK4): 19.6 nM | IC50 [1]: 408 nM

CC(C)(O)[C@H](F)CNC(=O)c1cnc(-n2ncc3cc(C#N)cnc32)cc1NCCCF [Example 595]
IC50 (IRAK4): 5.3 nM | IC50 [1]: 129 nM

CC(C)C(O)CNc1cc(-n2ncc3cc(C#N)cnc32)ncc1C(=O)NC[C@@H](F)C(C)(C)O (stereo partly shown) [Example 597]
IC50 (IRAK4): 15.6 nM | IC50 [1]: 307 nM

CC(C)(O)[C@H](F)CNC(=O)c1cnc(-n2ncc3cc(C#N)cnc32)cc1NCCOC(F)F [Example 598]
IC50 (IRAK4): 16.6 nM | IC50 [1]: 54 nM
